# Source: US20140316005A1, “COMPOSITIONS FOR IMPROVED OXIDATIVE STATUS IN COMPANION ANIMALS” (HILL'S PET NUTRITION, INC., priority 2003, published 2014)
# Where two headings read alike, the source gives them in different places.
# Conditions: for Total gain / Weekly gain / Final wt.: kittens; for Total gain / Weekly gain: 10 weeks post-weaning; for Final wt.: end of 10-week trial
# From the text: Dietary methionine was fed to growing kittens at three levels (0.77, 1.14, and 1.50%) to determine the effect of methionine on growth performance and antioxidant activity. Kittens were fed meat based, canned diets for 10 weeks post-weaning.
# [1] = Week 5, dietary methionine 0.77 wt %
# [2] = Week 5, dietary methionine 1.14 wt %
# [3] = Week 5, dietary methionine 1.50 wt %
# [4] = Week 10, dietary methionine 0.77 wt %
# [5] = Week 10, dietary methionine 1.14 wt %
# [6] = Week 10, dietary methionine 1.50 wt %
# [7] = week 5, 1.50 wt % dietary methionine vs 0.77 wt %
# [8] = week 10, 1.50 wt % dietary methionine vs 0.77 wt %
structure (smiles),measurement,setting,value
CSCC[C@H](N)C(=O)O [methionine],"Weekly weight gain, in words",1.14 wt % and 1.50 wt % dietary methionine compared to 0.77 wt %,increased
same,ORAC (oxygen radical absorptive capacity),[1],2521.84
same,Taurine (whole blood),[1],575.63
same,Vitamin E (serum),[1],15.63
same,ORAC (oxygen radical absorptive capacity),[2],2694.51
same,Taurine (whole blood),[2],630.00
same,Vitamin E (serum),[2],19.86
same,ORAC (oxygen radical absorptive capacity),[3],3164.36
same,Taurine (whole blood),[3],783.71
same,Vitamin E (serum),[3],30.19
same,ORAC (oxygen radical absorptive capacity),[4],2972.53
same,Taurine (whole blood),[4],625.75
same,Vitamin E (serum),[4],20.74
same,ORAC (oxygen radical absorptive capacity),[5],2503.38
same,Taurine (whole blood),[5],616.13
same,Vitamin E (serum),[5],24.24
same,ORAC (oxygen radical absorptive capacity),[6],3013.31
same,Taurine (whole blood),[6],784.57
same,Vitamin E (serum),[6],25.13
same,Total gain,dietary methionine 0.77 wt %,950.00 g
same,Weekly gain,dietary methionine 0.77 wt %,95.00 g
same,Final wt.,dietary methionine 0.77 wt %,1518.75 g
same,Total gain,dietary methionine 1.14 wt %,1075.00 g
same,Weekly gain,dietary methionine 1.14 wt %,107.50 g
same,Final wt.,dietary methionine 1.14 wt %,1612.50 g
same,Total gain,dietary methionine 1.50 wt %,1221.43 g
same,Weekly gain,dietary methionine 1.50 wt %,122.14 g
same,Final wt.,dietary methionine 1.50 wt %,1792.86 g
same,"Blood taurine concentrations, in words",[7],greater
same,"Oxygen radical absorptive capacity (ORAC), in words",[7],greater
same,"Vitamin E concentrations, in words",[7],greater
same,"Oxygen radical absorptive capacity, in words",week 10,not increased
same,"Serum vitamin E concentrations, in words",[8],greater
same,"Whole blood taurine concentrations, in words",[8],greater
